Literature values in US10493079B2, “Stable carfilzomib formulations” (Cipla Limited, priority 2016, dated 2019).

For CC(C)C[C@H](NC(=O)[C@H](CCc1ccccc1)NC(=O)CN1CCOCC1)C(=O)N[C@@H](Cc1ccccc1)C(=O)N[C@@H](CC(C)C)C(=O)[C@@]1(C)CO1 [carfilzomib], the aqueous solubility is given as “extremely low”.
